Measured values from patent EP4438596A1, “DIAMINOPYRIMIDINE DERIVATIVES AS HDAC AND DHFR DUAL-TARGETING INHIBITORS AND USE THEREOF IN PREVENTING AND TREATING MALARIA” (Université de Lille, priority 2023, dated 2024).
Counter-ions that a name gives are not always drawn. Like-named read-outs stand apart in the source and are kept apart here.

Assays:
[1] = system: P. falciparum 3D7-infected erythrocytes; experiment: Plasmodium falciparum growth inhibition assay (SYBR Green I, flow cytometry), drug-sensitive strain; type: cell-based
Protocol: (§1) Plates were incubated under standard P. falciparum culture conditions for 48 h. […] Fixed parasitized red blood cells (RBC) were stored at 4 °C in the dark until flow cytometry analysis. Parasite growth was assessed by flow cytometry on a BD FACS Cantoll (BD Biosciences) or a Attune™ NxT Flow Cytometer (Invitrogen). Cell doublets were excluded from the analysis using a forward scatter (FSC)-width versus FSC-area dot plot. Infected and uninfected erythrocytes were gated on the basis of their FSC and side scatter (SSC) signals. Fluorescence analysis (Green fluorescence FITC) was performed using BD FACSDiva software (BD Biosciences) on a total of 200,000 acquired events. […] Fluorescence of non-infected RBC was adjusted to plot between 10° and 10^2. Results are expressed as the percentage of growth inhibition.
(§2) All IC50 values were calculated using log-linear interpolation (www.antimalarial-icestimator.net), with mean values (± SD) determined over at least two independent experiments.

[2] = system: P. berghei ANKA parasites; experiment: Peters 4-day suppressive test, oral efficacy in P. berghei-infected mice; type: in vivo, Plasmodium berghei
Protocol: Compounds powder was dissolved in DMSO and sonicated for 10 min. Appropriate volume of 50%W/v HPβCD was added dropwise under gentle swirling. After 10 min sonication, DPBS was added dropwise under gentle swirling and the mixture was sonicated again for 10 min. After checking the pH (5.5 - 7), the solution was filtered (0.22µm) and conserved at room temperature for max 2 days. Final concentration of compounds was 2.5 mg/mL, 1 mg/mL or 0.1 mg/mL for mice treatment with 25 mg/kg, 10 mg/kg or 1mg/kg doses.
10 weeks-old Balb/C male mice were purchased from Janvier Labs.
P. berghei ANKA parasites stabilates conserved in liquid nitrogen were thawed and injected intraperitoneally (ip) into 2-3 mice (10^6 infected red blood cells (RBC) / mouse). When parasitemia reached 3-5%, mice were bled and groups of six BALB/c male mice were infected with 10^6 P. berghei ANKA parasites (day 0), and treated per os (p.o.) twice a day on days 0, 1, 2 and 3. […] On day 4 post infection (p.i.), the peripheral blood parasitemia of all mice was evaluated via microscopic examination of Giemsa-stained thin blood smears. Parasitemia was then followed for two weeks.

[3] = system: multidrug-resistant P. falciparum line Dd2; experiment: Plasmodium falciparum growth inhibition assay (SYBR Green I, flow cytometry), multidrug-resistant line; type: cell-based; settings: Plasmodium falciparum, DD2, 48 h, line resistant to CQ, PYR and mefloquine, mean ± SD, n ≥ 2, read-out: PfDd2 IC50
Protocol: as §1, §2

[4] = Plasmodium falciparum, 3D7, Erythrocyte, 48 h incubation, mean ± SD, n ≥ 2, read-out: Pf3D7 IC50
[5] = Plasmodium falciparum, 3D7, Erythrocyte, 48 h incubation, read-out: IC50 (Pf3D7)
[6] = Experiment 3, Balb/C mice, 1 mg/kg p.o. twice a day on days 0-3, day 4 p.i.
[7] = Experiment 3, Balb/C mice, 1 mg/kg p.o. twice a day on days 0-3, day 5 p.i.
[8] = Experiment 3, Balb/C mice, 1 mg/kg p.o. twice a day on days 0-3, day 6 p.i.
[9] = Experiment 3, Balb/C mice, 1 mg/kg p.o. twice a day on days 0-3, day 7 p.i.
[10] = Experiment 3, Balb/C mice, 1 mg/kg p.o. twice a day on days 0-3, day 8 p.i.
[11] = Experiment 3, Balb/C mice, 1 mg/kg p.o. twice a day on days 0-3, day 10 p.i.
[12] = Plasmodium falciparum, 3D7, Erythrocyte, 48 h, read-out: Pf3D7 IC50

CCc1nc(N)nc(N)c1OCCCOc1ccccc1CCC(=O)NO.Cl [1·HCl, 3-(2-[3-(2,4-Diamino-6-ethylpyrimidin-5-yloxy)propoxy]phenyl)-N-hydroxypropanamide hydrochloride]
IC50 [1, 4]: 0.17 ± 0.018 nM | IC50 [1, 5]: < 0.2 nM | activity in vivo against Plasmodium berghei ([2]; Experiment 1 (Fig. 1), Balb/C mice, 10mg/kg and 25mg/kg orally twice a day on days 0,1,2,3): active in vivo | parasites in treated mice ([2]; Experiment 3, 1 mg/kg p.o. twice a day on days 0-3, day 4 p.i.): undetectable | number of mice showing blood parasites [2, 6]: 0/6 | parasitemia (mean ± sd) [2, 6]: 0% | number of mice showing blood parasites [2, 7]: 1/6 | parasitemia (mean ± sd) [2, 7]: 0,07 ± 0,16% | number of mice showing blood parasites [2, 8]: 1/6 | parasitemia (mean ± sd) [2, 8]: 0,15 ± 0,37% | number of mice showing blood parasites [2, 9]: 1/6 | parasitemia (mean ± sd) [2, 9]: 0,31 ± 0,76% | number of mice showing blood parasites [2, 10]: 1/6 | parasitemia (mean ± sd) [2, 10]: 1,31 ± 3,21% | number of mice showing blood parasites [2, 11]: 1/6 | parasitemia (mean ± sd) [2, 11]: 0,7 ± 1,72% | parasites in treated mice ([2]; Experiments 1 and 2, 10 mg/kg p.o. twice a day on days 0-3, day 4 p.i.): undetectable | parasites in treated mice, follow-up ([2]; Experiments 1 and 2, 10 mg/kg p.o. twice a day on days 0-3, until the end of the experiments): remained undetectable | parasite clearance after oral administration ([2]; oral route, 10 mg/kg): achieved parasite clearance | IC50 [3]: 19.8 ± 0.9 nM

N-(4-Acetoxybenzyloxy)-3-(2-(3-(2,4-diamino-6-ethylpyrimidin-5-yloxy)propoxy)phenyl)propenamide [Compound 6]
IC50 ([1]; 48 h incubation, mean ± SD, n ≥ 2, read-out: Pf3D7 IC50): 0.169 ± 0.041 nM

CCc1nc(N)nc(N)c1OCCCOc1ccccc1/C=C/C(=O)NOCc1ccccc1 [Compound 17, (E)-N-(Benzyloxy)-3-{2-[3-(2,4-diamino-6-ethylpyrimidin-5-yloxy)propoxy]phenyl}acrylamide]
IC50 [1, 4]: 0.331 ± 0.124 nM

CCc1nc(N)nc(N)c1OCCCOc1ccc(/C=C/C(=O)NO)cc1 [20·HCl, (E)-3-{4-[3-(2,4-Diamino-6-ethylpyrimidin-5-yloxy)propoxy]phenyl}-N-hydroxyacrylamide hydrochloride]
IC50 [1, 4]: 0.117 ± 0.045 nM | IC50 [1, 5]: < 0.2 nM

CCc1nc(N)nc(N)c1OCCCOc1cccc(COc2cccc(/C=C/C(=O)NO)c2)c1 [Compound 21, (E)-3-(3-(3-[3-(2,4-Diamino-6-ethylpyrimidin-5-yloxy)propoxy]benzyloxy)phenyl)-N-hydroxyacrylamide hydrochloride]
IC50 [1, 4]: 0.347 ± 0.047 nM

CCc1nc(N)nc(N)c1OCCCOc1ccc(C(=O)NCCCCCCC(=O)NO)cc1 [Compound 31, 4-{3-[(2,4-Diamino-6-ethylpyrimidin-5-yl)oxy]propoxy}-N-[7-(hydroxyamino)-7-oxoheptyl]benzamide]
IC50 [1, 4]: 0.404 ± 0.136 nM | IC50 [3]: 22.8 ± 2.6 nM

CCc1nc(N)nc(N)c1OCCCOc1ccccc1CCC(=O)NOCc1ccccc1 [Compound 7, N-(Benzyloxy)-3-(2-(3-(2,4-diamino-6-ethylpyrimidin-5-yloxy)propoxy)phenyl)propanamide]
IC50 [1, 4]: 0.497 ± 0.055 nM

CCc1nc(N)nc(N)c1OCCCOc1cc(C(=O)NO)ccc1F [Compound 10, 3-(3-[2,4-Diamino-6-ethylpyrimidin-5-yloxy)propoxy]-4-fluoro-N-hydroxybenzamide]
IC50 [1, 4]: 0.39 ± 0.012 nM

CCc1nc(N)nc(N)c1OCCCOc1cccc(/C=C/C(=O)NO)c1 [19·HCl, (E)-3-{3-[3-(2,4-Diamino-6-ethylpyrimidin-5-yloxy)propoxy]phenyl}-N-hydroxyacrylamide hydrochloride]
IC50 [1, 4]: 0.173 ± 0.021 nM | IC50 [1, 5]: < 0.2 nM | IC50 [3]: 41.5 ± 11.9 nM

CCc1nc(N)nc(N)c1OCCCOc1ccccc1/C=C/C(=O)NOCc1ccc(OC(C)=O)cc1 [Compound 16, (E)-N-(4-Acetoxybenzyloxy)-3-{2-[3-(2,4-diamino-6-ethylpyrimidin-5-yloxy)propoxy]phenyl}acrylamide]
IC50 [1, 4]: 0.067 ± 0.005 nM | IC50 [1, 5]: < 0.1 nM | number of mice showing blood parasites [2, 6]: 1/5 | parasitemia (mean ± sd) ([2]; Experiment 3, Balb/C mice, 1 mg/kg p.o. twice a day on days 0-3, day 4 p.i., 1 mg/kg): 0,02 ± 0,04% | number of mice showing blood parasites [2, 7]: 2/5 | parasitemia (mean ± sd) [2, 7]: 0,48 ± 0,72% | number of mice showing blood parasites [2, 8]: 3/5 | parasitemia (mean ± sd) [2, 8]: 2,22 ± 2,44% | number of mice showing blood parasites [2, 9]: 3/5 | parasitemia (mean ± sd) [2, 9]: 5,21 ± 7,86% | number of mice showing blood parasites [2, 10]: 5/5 | parasitemia (mean ± sd) [2, 10]: 5,33 ± 5,64% | number of mice showing blood parasites [2, 11]: 5/5 | parasitemia (mean ± sd) [2, 11]: 9,25 ± 7,38%

CCc1nc(N)nc(N)c1OCCCOc1cc(Cl)ccc1/C=C/C(=O)NO [Compound 15, (E)-3-{4-Chloro-2-[3-(2,4-diamino-6-ethylpyrimidin-5-yloxy)propoxy]phenyl}-N-hydroxyacrylamide]
IC50 [1, 4]: 0.082 ± 0.007 nM | IC50 [1, 5]: < 0.1 nM | IC50 [3]: 4 ± 0.4 nM

CCc1nc(N)nc(N)c1OCCOc1cccc(/C=C/C(=O)NO)c1 [18·HCl, (E)-3-(3-[2-(2,4-Diamino-6-ethylpyrimidin-5-yloxy)ethoxy]phenyl)-N-hydroxyacrylamide hydrochloride]
IC50 [1, 4]: 0.249 ± 0.015 nM

CCc1nc(N)nc(N)c1OCCCOc1cccc(C(=O)NCCCCCCC(=O)NO)c1 [Compound 30, 3-{3-[(2,4-Diamino-6-ethylpyrimidin-5-yl)oxy]propoxy}-N-[7-(hydroxyamino)-7-oxoheptyl]benzamide]
IC50 [1, 4]: 0.876 ± 0.018 nM

CCc1nc(N)nc(N)c1OCCCOc1cc(Cl)ccc1CCC(=O)NO [5·HCl, 3-(4-Chloro-2-[3-(2,4-diamino-6-ethylpyrimidin-5-yloxy)propoxy]phenyi)-N-hydroxypropanamide hydrochloride]
IC50 [1, 12]: 0.279 ± 0.154 nM

CCN(CC)CCCC(C)Nc1ccnc2cc(Cl)ccc12 (centres unmarked) [CQ, chloroquine, reference compound]
IC50 [1, 12]: 4.7 ± 1.7 nM | parasitemia (mean ± sd) ([2]; Experiment 3, positive control, 10 mg/kg p.o. once a day for 4 days, day 4 p.i.): 0% | parasitemia (mean ± sd) ([2]; Experiment 3, positive control, 10 mg/kg p.o. once a day for 4 days, day 5 p.i.): 0% | parasitemia (mean ± sd) ([2]; Experiment 3, positive control, 10 mg/kg p.o. once a day for 4 days, day 6 p.i.): 0% | parasitemia (mean ± sd) ([2]; Experiment 3, positive control, 10 mg/kg p.o. once a day for 4 days, day 7 p.i.): 0% | parasitemia (mean ± sd) ([2]; Experiment 3, positive control, 10 mg/kg p.o. once a day for 4 days, day 8 p.i.): 0% | parasitemia (mean ± sd) ([2]; Experiment 3, positive control, 10 mg/kg p.o. once a day for 4 days, day 10 p.i.): 0%

CCc1nc(N)nc(N)c1OCCCOc1cc(OC)ccc1CCC(=O)NO [4·HCl, 3-(2-[3-(2,4-Diamino-6-ethylpyrimidin-5-yloxy)propoxy]-4-methoxyphenyl)-N-hydroxypropanamide hydrochloride]
IC50 [1, 4]: 0.173 ± 0.122 nM | IC50 [1, 5]: < 0.2 nM | IC50 [3]: 6.2 ± 0.5 nM

CCc1nc(N)nc(N)c1OCCCCOc1ccccc1CCC(=O)NO [3·HCl, 3-(2-[4-(2,4-Diamino-6-ethylpyrimidin-5-yloxy)butoxy]phenyl)-N-hydroxypropanamide hydrochloride]
IC50 [1, 4]: 0.451 ± 0.088 nM

CCc1nc(N)nc(N)c1OCCCOc1cc(OC)ccc1/C=C/C(=O)NO [14·HCl, (E)-3-{2-[3-(2,4-Diamino-6-ethylpyrimidin-5-yloxy)propoxy]-4-methoxyphenyl}-N-hydroxyacrylamide hydrochloride]
IC50 [1, 4]: 0.088 ± 0.02 nM | IC50 [1, 5]: < 0.1 nM

CCc1nc(N)nc(N)c1OCCCOc1cc(C(=O)NO)ccc1Cl [Compound 9, 4-Chloro-3-[3-(2,4-diamino-6-ethylpyrimidin-5-yloxy)propoxy]-N-hydroxybenzamide]
IC50 [1, 4]: 0.172 ± 0.027 nM | IC50 [1, 5]: < 0.2 nM | IC50 [3]: 16.9 ± 3.2 nM

CCc1nc(N)nc(N)c1OCCCOc1cccc(C(=O)NOCc2ccc(OC(C)=O)cc2)c1 [Compound 11, N-(4-Acetoxybenzyloxy)-3-[3-(2,4-diamino-6-ethylpyrimidin-5-yloxy)propoxy]benzamide]
IC50 [1, 4]: 1.02 ± 0.68 nM | IC50 [1, 5]: < 0.2 nM | ranking of activity against P. berghei infection ([2]; Experiment 3, 1 mg/kg p.o. twice a day on days 0-3): most active
